Measurements reported in ChEMBL document CHEMBL3734728, “2,30-Bis(10H-indole) heterocycles: New p53/MDM2/MDMX antagonists” (Bioorg Med Chem Lett, 2015).

What was measured:
[1] = Lipophilicity, logP of the compound; assay type: physicochemical; details: octanol/water
Protein Mdm4 = molecular target: T1, Protein Mdm4 (Homo sapiens, UniProt O15151)
T1 sequence (O15151 whole entry): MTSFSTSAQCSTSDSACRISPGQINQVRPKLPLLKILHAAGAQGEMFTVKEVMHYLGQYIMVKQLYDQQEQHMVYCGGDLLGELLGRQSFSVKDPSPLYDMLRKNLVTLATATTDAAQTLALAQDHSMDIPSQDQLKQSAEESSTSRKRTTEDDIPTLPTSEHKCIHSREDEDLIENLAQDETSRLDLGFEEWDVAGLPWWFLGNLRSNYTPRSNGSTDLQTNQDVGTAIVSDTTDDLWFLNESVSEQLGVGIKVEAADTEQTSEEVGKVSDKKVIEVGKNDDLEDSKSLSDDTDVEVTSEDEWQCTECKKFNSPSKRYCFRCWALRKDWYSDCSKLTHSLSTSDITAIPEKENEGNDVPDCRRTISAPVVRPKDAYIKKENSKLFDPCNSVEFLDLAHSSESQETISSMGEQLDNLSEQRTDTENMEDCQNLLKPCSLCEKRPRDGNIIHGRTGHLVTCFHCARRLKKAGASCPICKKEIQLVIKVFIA

[2] = molecular target: E3 ubiquitin-protein ligase Mdm2 (Homo sapiens, UniProt Q00987)
Sequence of E3 ubiquitin-protein ligase Mdm2 (Q00987 whole entry): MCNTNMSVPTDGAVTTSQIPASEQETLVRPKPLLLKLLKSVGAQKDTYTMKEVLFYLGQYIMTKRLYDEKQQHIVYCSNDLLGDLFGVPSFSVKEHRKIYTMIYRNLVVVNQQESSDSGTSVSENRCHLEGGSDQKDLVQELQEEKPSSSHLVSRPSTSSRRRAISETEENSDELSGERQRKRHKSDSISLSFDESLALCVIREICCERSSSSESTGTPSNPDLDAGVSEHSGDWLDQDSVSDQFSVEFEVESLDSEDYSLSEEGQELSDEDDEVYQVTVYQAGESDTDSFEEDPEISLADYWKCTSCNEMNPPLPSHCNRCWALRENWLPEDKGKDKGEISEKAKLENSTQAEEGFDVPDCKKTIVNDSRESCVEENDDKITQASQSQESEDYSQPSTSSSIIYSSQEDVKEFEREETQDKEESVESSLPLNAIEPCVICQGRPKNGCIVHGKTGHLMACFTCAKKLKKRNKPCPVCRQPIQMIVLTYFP

| logP [1] | SMILES | Ki (Protein Mdm4) | Ki [2] |
| --- | --- | --- | --- |
| 7.38 | O=C(O)c1[nH]c2cc(Cl)ccc2c1-c1c(-c2ccc(F)cc2)c2ccccc2n1Cc1ccc(Cl)cc1 | – | – |
| 7.98 | CCOC(=O)c1[nH]c2cc(Cl)ccc2c1-c1c(-c2ccc(F)cc2)c2ccccc2n1Cc1ccc(Cl)cc1 | – | – |
| 7.22 | O=C(O)c1[nH]c2cc(Cl)ccc2c1-c1c(-c2ccccc2)c2ccccc2n1Cc1ccc(Cl)cc1 | – | – |

More lines, now with the values behind:

| SMILES | logP [1] | Ki (Protein Mdm4) | Ki [2] |
| --- | --- | --- | --- |
| CCOC(=O)c1[nH]c2cc(Cl)ccc2c1-c1c(-c2ccc(Cl)cc2)c2ccccc2n1Cc1ccc(Cl)cc1 | 8.38 | > 60 µM | > 22 µM |
| O=C(NCCN1CCOCC1)c1[nH]c2cc(Cl)ccc2c1-c1c(-c2ccccc2)c2ccccc2n1Cc1ccc(Cl)cc1 | 6.4 | – | – |
| CCOC(=O)c1[nH]c2cc(Cl)ccc2c1-c1c(-c2ccccc2)c2ccccc2n1Cc1ccc(Cl)cc1 | 7.82 | – | – |
| Clc1ccc(Cn2c(-c3c[nH]c4cc(Cl)ccc34)c(-c3ccccc3)c3ccccc32)cc1 | 7.61 | – | – |
